The test system of data set [1] is 3D7-strain P. falciparum asexual parasites. Briefly: P. falciparum asexual growth inhibition assay (Pf GIA). To be noted: dose response confirmation; read-out: Pf asexual growth inhibition assays IC50. In kind it is cell-based, Plasmodium falciparum. As to the method:
The asexual activity of active compounds was tested in dose response with parasite lactate dehydrogenase (LDH) activity used as a readout of parasite viability as described in [Gamo et al. (2010)]. Briefly, 3D7-strain P. falciparum asexual parasites were diluted to 0.25% parasitemia, 2% hematocrit in culture medium composed of RPMI medium with 25 mM HEPES, 2% D-sucrose, 0.3% L-glutamine, 150 μM hypoxanthine plus 5% albumax. 25 μl of parasite inoculum was then dispensed into each well of a 384 well plate containing test compounds and positive (50 μM chloroquine) and negative (DMSO) controls. Plates were incubated for 72 h at 37°C in a 5% CO2, 5%O2, 90% N2 environment before being frozen at −70°C. Plates were then thawed and 70 μl of reaction mix (143 mM sodium L-lactate, 143 mM 3-acetyl pyridine adenine dinucleotide, […] Nitro Blue tetrazolium chloride, […] diaphorase (2.83 U/ml), 0.7% Tween 20, 100 mM Tris–HCl pH 8.0) was added to each well using a Multidrop Combi automated dispenser. Plates were shaken to mix and then absorbance at 650 nm was measured after 10 min incubation at room temperature. Percent inhibition of asexual growth was then calculated with respect to positive and negative controls. Data presented is the mean of three independent biological replicates.

A further data set has as its system HepG2 cells. In words: HepG2 cytotoxicity assay. To be noted: for IC50: read-out: HepG2 cytotoxicity assay IC50, dose response confirmation; for Unified cytotox: unified HepG2 value across the three screens; for Pb ODA (this manuscript) HepG2 cytoxicity: HepG2 cytotoxicity listed with the Pb ODA data set (this manuscript). The protocol:
Briefly, HepG2 cells were seeded onto compound-treated 384 well plates at a density of 2,500 cells per well in Minimal Essential Medium (MEM) plus 10% fetal bovine serum and 1% non-essential amino acids solution (NEAA). Cells were incubated with test compounds or 50 μM doxorubicin (positive) and DSMO (negative) controls at 37°C for 48 h in a humidified 5% CO2 atmosphere. […] Cell viability was then measured in a fluorescent plate reader and percent inhibition calculated with respect to positive and negative controls.

Data set [2] has as its system P. berghei ookinete development. To be noted: for % inhibition, Replicate A / % inhibition, Replicate B: primary screen at 1 μM.
Setting [3] is: read-out: Pb ODA IC50, this manuscript.
Setting [4] is: read-out: Pb Ookinete development assay IC50, dose response confirmation.

The values that follow come from publication PMC6753678, “Fueling Open Innovation for Malaria Transmission-Blocking Drugs: Hundreds of Molecules Targeting Early Parasite Mosquito Stages” (Frontiers in Microbiology, 2019).

Structures are written as SMILES. Where two headings read alike, the source gives them in different places.

One may read the IC50 as the point on the concentration scale where inhibition reaches its midpoint.

`O=c1c2ccccc2[nH]c2cc(Cl)ccc12` [TCMDC-123989]: the half-inhibitory concentration (IC50) stood at 1280 nM in data set [1], 50700 nM in the data set on HepG2 cells, 1180 nM in data set [2] (setting [3]) and 1180 nM in data set [2] (setting [4]). Moreover, in the data set on HepG2 cells, the “Unified cytotox” value is 50.70 µM. Also, the “Is compound selective in assay? Pb ODA active?” value (“Is compound selective” below) in data set [2] (1: YES, 0: NO) is listed as 1 (1: YES). Also, in data set [2], the “% inhibition, Replicate A” value is given as 43.19%. Also, the “% inhibition, Replicate B” value in data set [2] was 69.34%.
For the compound `CC(Cl)=CCc1c(C)[nH]c2c(ccc3ccccc32)c1=O` [TCMDC-124085], in data set [1], the IC50 came out at 276 nM. For the same compound, in the data set with HepG2 cells, the “Pb ODA (this manuscript) HepG2 cytoxicity” value is reported as 100.00 µM and the IC50 was 100000 nM. Moreover, in data set [2], the “Is compound selective” value is listed as 1 (key: 1: YES; 0: NO); the “% inhibition, Replicate A” value was determined as 85.49%; the “% inhibition, Replicate B” value is recorded as 96.24%. Besides, in data set [2] (read-out: Pb ODA (this manuscript) IC50, P. berghei ookinete development assay, this manuscript), the IC50 was found to be 330 nM. The half-inhibitory concentration (IC50) in data set [2] (setting [4]) worked out at 328 nM.
Regarding `CCOC(=O)C(=O)N1c2ccc(OCC)cc2-c2c(ssc2=S)C1(C)C` [TCMDC-124090], the IC50 was 89 nM in data set [1], 100000 nM in the data set with HepG2 cells, 2010 nM in data set [2] (setting [3]) and 2010 nM in data set [2] (setting [4]). For the same compound, in the data set with HepG2 cells, the “Unified cytotox” value was found to be 100.00 µM. Besides, the “Is compound selective” value in data set [2] (1: YES, 0: NO) is 1 (1: YES). Also, in data set [2], the “% inhibition, Replicate A” value stood at 23.50%. The “% inhibition, Replicate B” value in data set [2] was 54.71%.
On to `CC(C)c1nc(N2CCN(C(=S)NCc3ccccc3)CC2)c(C#N)c2c1COC(C)(C)C2` [TCMDC-124093], for which the half-maximal inhibitory concentration (IC50) in data set [1] was 55 nM. Further, in the data set with HepG2 cells, the IC50 was 1.7 nM and the “Unified cytotox” value worked out at 0.0017 µM. Further, the “Is compound selective” value in data set [2] (1: YES, 0: NO) is 0 (0: NO). For the same compound, in data set [2], the “% inhibition, Replicate A” value worked out at 50.94% and the “% inhibition, Replicate B” value is recorded as 54.99%. Further, the concentration for half-maximal inhibition (IC50) in data set [2] (setting [4]) is 760 nM.
Take `Cc1cc(C)cc(-n2c(C)cc(/C=C3\SC(=Nc4ccc(Cl)cc4)NC3=O)c2C)c1` [TCMDC-124103]: the IC50 was 32 nM in data set [1], 100000 nM with HepG2 cells, 560 nM in data set [2] (setting [3]) and 561 nM in data set [2] (setting [4]). Besides, the “Unified cytotox” value in the data set with HepG2 cells was 100.00 µM. In addition, the “Is compound selective” value in data set [2] (1: YES, 0: NO) is recorded as 1 (1: YES). For the same compound, the “% inhibition, Replicate A” value in data set [2] amounted to 110.51%. In data set [2], the “% inhibition, Replicate B” value was 94.72%.
For the compound `CCOC(=O)c1c(CN2CCCC2)n(-c2ccccc2)c2cc(Br)c(O)cc12` [TCMDC-124122], the 50% inhibitory concentration (IC50) in data set [1] is 658 nM; in the data set with HepG2 cells, 71600 nM; in data set [2] (setting [3]), 7760 nM; in data set [2] (setting [4]) it was 7760 nM. In addition, the “Unified cytotox” value with HepG2 cells came to 71.61 µM. In data set [2] (1: YES, 0: NO), the “Is compound selective” value was 0 (0: NO). In addition, the “% inhibition, Replicate A” value in data set [2] is reported as 64.42%. Besides, the “% inhibition, Replicate B” value in data set [2] was found to be 39.97%.
Regarding `Cc1ccc(Nc2nc(N/N=C/c3cccc(O)c3)nc(Nc3ccc([N+](=O)[O-])cc3)n2)cc1C` [TCMDC-124125], the IC50 in data set [1] stood at 1820 nM; in the data set with HepG2 cells it was 100000 nM; in data set [2] (setting [3]) it was 3830 nM; in data set [2] (setting [4]), 3830 nM. In the data set with HepG2 cells, the “Unified cytotox” value amounted to 100.00 µM. The “Is compound selective” value in data set [2] (1: YES, 0: NO) is 1 (1: YES). For the same compound, the “% inhibition, Replicate A” value in data set [2] worked out at 68.98%. Also, in data set [2], the “% inhibition, Replicate B” value was found to be 54.76%.
In the case of `COc1ccc2nc3cc(Cl)ccc3c(NCCCO)c2c1` [TCMDC-124144], the concentration for half-maximal inhibition (IC50) in data set [1] came to 210 nM. Besides, in the data set on HepG2 cells, the “Pb ODA (this manuscript) HepG2 cytoxicity” value came out at 7.08 µM and the IC50 stood at 7080 nM. For the same compound, in data set [2], the “Is compound selective” value was 0 (key: 1: YES; 0: NO); the “% inhibition, Replicate A” value worked out at 19.58%; the “% inhibition, Replicate B” value is on record as 67.10%. Also, in data set [2] (setting [4]), the IC50 came out at 1300 nM.
